Source: patent US10370376B2, “Amorphous substance of Idelalisib and preparation method therefor” (Alnova Pharmaceuticals, Ltd., priority 2015, dated 2019)
≈ marks a conversion by molar mass, not a printed value. Blank lines part the entries; values can stand above or below the compound they belong to.

Experiments:
Assay type in all cases: physicochemical
[1] = Impact factor test of the amorphous Idelalisib (high temperature, high humidity; HPLC and XRPD)
[2] = Determination of apparent solubility (saturation solubility by HPLC) in diluents of different pH; settings: for solubility at 12 h: 37 °C, thermodynamic from solid; for solubility at 12 h / Apparent solubility: shaken 12 hours, average of 3; for Apparent solubility: 37° C.
Method: The crystalline Idelalisib, Form I, was prepared according to the method of Example 1 of U.S. Pat. No. 8,865,730.
Determination of apparent solubility: weigh a certain amount of the sample into a 1.8 mL of centrifuge tube, add 1 mL of the specified pH diluent, cap tightly. Each solution was prepared with 3 replicates (the amount of the added sample must be much larger than of which can be formed a saturated solution at different pH, details were shown in Table 1), and then 1 mL of the designated pH diluent was added. Then the centrifuge tube containing the test solution was shaken in a water bath at 37° C.±0.5° C. for 12 hours, let Stand in an oven at 37° C. for 2 hours. The upper lay was filtered through a […] microporous membrane. Pipette 200 uL of the filtrated solution into a vial containing 200 uL of acetonitrile, shaken to mix. Label it as test solution. Inject 2 uL of the test solution to HPLC system, record the peak area of main peak. Inject the reference standard solution following the same procedure as the test solution, record the peak area of the main peak of reference standard. According to the main peak area of the test solution and the reference solution, the concentration of the reference solution and the concentration of the test solution are calculated by external standard method. Then the saturation solubility will be obtained by multiplying concentration by the dilution factor of 2. The final result of saturation solubility is the average result of three parallel test samples.
Preparation of reference standard solution: accurately weight about 25 mg of Idelalisib (Form I) into a 25 mL of volumetric flask, dissolve and dilute to the volume with diluent (acetonitrile:water=1:1). The concentration of the reference standard is about 1 mg/mL.
Preparation of Diluents of Different pH:
(1) pH=1.0 diluent: Add 9 mL of concentrated HCl to a 1000 mL of volumetric flask, diluted to the volume with water.
(2) pH=2.0 diluent: Solution A: Transfer 16.6 mL of phosphoric acid to a 100 mL volumetric flask, dilute to the volume with water, shake to mix. Solution B: Weigh and transfer 71.63 g of […] to a 1000 mL of volumetric flask, dilute to the volume with water, dissolve and mix well. Mix 72.5 mL of solution A and 27.5 mL of solution B.
(3) pH=3.0 diluent: transfer 50 mL of glacial acetic acid to a 1000 mL of volumetric flask, add 800 mL of water, adjust pH to 3.0 with lithium hydroxide, then diluted to the volume with water.
(4) pH=4.0 diluent: weigh and transfer 7.7 g of ammonium acetate, dissolve with 50 mL of water, add 6 mL of glacial acetic acid, then diluted to 100 mL with water.
(5) pH=5.6 diluent: Phthalate buffer (pH 5.6): Transfer 10 g of potassium hydrogen phthalate, add 900 mL of water, stir to dissolve, adjust pH to 5.6 with sodium hydroxide solution (or diluted hydrochloric acid if necessary) then diluted to the volume with water.
(6) pH=6.8 diluent: mix 250 mL of 0.2 mol/L potassium dihydrogen phosphate solution and 118 mL of 0.2 mol/L sodium hydroxide solution, diluted to 1000 mL with water, shaken to mix.
(7) pH=7.4 diluent: transfer 1.36 g of potassium dihydrogen phosphate, add 79 mL of 0.1 mol/L sodium hydroxide solution, diluted to 200 mL with water.

[3] = Accelerated stability test of the amorphous Idelalisib (HPLC and XRPD); settings: for Crystalline (XRPD) / Relevant substances (Total impurities %): Temperature 40° C. ± 2° C., Humidity 75% ± 5%
Method: Experiment conditions: temperature 40° C.±2° C., humidity 75%±5% The substance was detected by HPLC.

[4] = Determination of apparent solubility (saturation solubility by HPLC) in diluents of different pH; settings: pH 4.5 diluent, 37° C., shaken 12 hours, average of 3
[5] = high temperature, high humidity after 10 days
[6] = accelerated test conditions after 6 months

Relevant substances (Total impurities %) ([1]; 0 day): 0.12%
Relevant substances (Total impurities %) ([1]; 5 days, Humidity 75% ± 5%): 0.14%
Relevant substances (Total impurities %) ([1]; 5 days, Humidity 90% ± 5%): 0.16%
Relevant substances (Total impurities %) ([1]; 5 days, Temperature 40° C. ± 2° C.): 0.13%
Relevant substances (Total impurities %) ([1]; 5 days, Temperature 60° C. ± 2° C.): 0.14%
Relevant substances (Total impurities %) ([1]; 10 days, Humidity 75% ± 5%): 0.14%
Relevant substances (Total impurities %) ([1]; 10 days, Humidity 90% ± 5%): 0.16%
Relevant substances (Total impurities %) ([1]; 10 days, Temperature 40° C. ± 2° C.): 0.14%
Relevant substances (Total impurities %) ([1]; 10 days, Temperature 60° C. ± 2° C.): 0.16%
Changes in the relevant substances [1, 5]: no significant changes
Apparent solubility compared with that of the Form I ([2]; at each pH (1.0 to 7.4)): significantly higher
solubility at 12 h ([2]; pH 1.0 diluent (dilute HCl), pH 1, simulated gastric fluid, pH 1.0 diluent): 52700 µg/mL (≈ 127000 µM)
Apparent solubility ([2]; pH 2.0 diluent): 7037.94 µg/mL
Apparent solubility ([2]; pH 3.0 diluent): 1622.95 µg/mL
solubility at 12 h ([2]; pH 5.6 diluent (phthalate buffer), pH 5.6, aqueous buffer, pH 5.6 diluent): 75.8 µg/mL (≈ 182 µM)
solubility at 12 h ([2]; pH 6.8 diluent (phosphate buffer), pH 6.8, aqueous buffer, pH 6.8 diluent): 75.3 µg/mL (≈ 181 µM)
solubility at 12 h ([2]; pH 7.4 diluent (phosphate buffer), pH 7.4, aqueous buffer, pH 7.4 diluent): 74.3 µg/mL (≈ 179 µM)
Relevant substances (Total impurities %) ([3]; 0 month): 0.12%
Relevant substances (Total impurities %) ([3]; 1 month): 0.14%
Relevant substances (Total impurities %) ([3]; 2 months): 0.15%
Relevant substances (Total impurities %) ([3]; 3 months): 0.16%
Relevant substances (Total impurities %) ([3]; 6 months): 0.19%
Changes in the relevant substances [3, 6]: no significant changes
Apparent solubility [4]: 694.19 µg/mL
SMILES: CC[C@H](Nc1ncnc2[nH]cnc12)c1nc2cccc(F)c2c(=O)n1-c1ccccc1 [amorphous Idelalisib, 5-fluoro-3-phenyl-2-[(1S)-1-(9H-purin-6-ylamino)propyl]-4(3H)-quinazolinone]
Crystalline (XRPD) ([1]; 0 day): There is no peak of crystalline Idelalisib
Crystalline (XRPD) ([1]; 5 days, all four conditions (40° C., 60° C., humidity 75%, 90%)): There is no peak of crystalline Idelalisib
Crystalline (XRPD) ([1]; 10 days, all four conditions (40° C., 60° C., humidity 75%, 90%)): There is no peak of crystalline Idelalisib
Crystallization of Idelalisib [1, 5]: no crystallization of Idelalisib was observed
Crystalline (XRPD) ([3]; 0 month): There is no peak of crystalline Idelalisib
Crystalline (XRPD) ([3]; 1 month): There is no peak of crystalline Idelalisib
Crystalline (XRPD) ([3]; 2 months): There is no peak of crystalline Idelalisib
Crystalline (XRPD) ([3]; 3 months): There is no peak of crystalline Idelalisib
Crystalline (XRPD) ([3]; 6 months): There is no peak of crystalline Idelalisib
Crystallization of Idelalisib [3, 6]: no crystallization of Idelalisib was observed

Apparent solubility ([2]; pH 1.0 diluent): 34580.16 µg/mL
Apparent solubility ([2]; pH 2.0 diluent): 1756.55 µg/mL
Apparent solubility ([2]; pH 3.0 diluent): 317.47 µg/mL
Apparent solubility ([2]; pH 5.6 diluent): 46.91 µg/mL
Apparent solubility ([2]; pH 6.8 diluent): 47.35 µg/mL
Apparent solubility ([2]; pH 7.4 diluent): 45.08 µg/mL
Apparent solubility [4]: 147.02 µg/mL
SMILES: CC[C@H](Nc1ncnc2[nH]cnc12)c1nc2cccc(F)c2c(=O)n1-c1ccccc1 [crystalline Idelalisib (Form I), 5-fluoro-3-phenyl-2-[(1S)-1-(9H-purin-6-ylamino)propyl]-4(3H)-quinazolinone, reference compound]
